According to patent US6632817B2, “Fluoromethoximino compounds” (priority 1997, dated 2003):

Test system: Venturia inaequalis
Test: Venturia test (apple)/protective
Assay type: in vivo
Details: Venturia inaequalis, 288 h, protective, application rate 10 g/ha, evaluation 12 days after inoculation, read-out: Efficacy in %
Protocol: Venturia Test (Apple)/Protective
(§1) Solvent: 47 parts by weight of acetone
(§2) Emulsifier: 3 parts by weight of alkylaryl polyglycol ether
(§3) To produce a suitable preparation of active compound, 1 part by weight of active compound is mixed with the stated amounts of solvent and emulsifier, and the concentrate is diluted with water to the desired concentration.
To test for protective activity, young plants are sprayed with the preparation of active compound at the stated application rate. After the spray coating has dried on, the plants are inoculated with an aqueous conidia suspension of the causative organism of apple scab Venturia inaequalis and then remain in an incubation cabin at approximately 20° C. and 100% relative atmospheric humidity for 1 day.
The plants are then placed in a greenhouse at approximately 21° C. and a relative atmospheric humidity of approximately 90%.
Evaluation is carried out 12 days after the inoculation. 0% means an efficacy which corresponds to that of the control, whereas an efficacy of 100% means that no infection is observed.

SMILES | pest or weed control at 10 g/ha [%]
CNC(=O)C(=NOCF)c1ccccc1Oc1nc(-c2ccccc2)ns1 [Example 3, 2-fluoromethoxyimino-N-methyl-2-[2-(3-phenyl-[1,2,4]thiadiazol-5-yloxy)-phenyl]-acetamide] | ≥ 99
CNC(=O)/C(=N\OCF)c1ccccc1Oc1ncnc(Oc2cccc(C)c2C)c1F [Example 9] | ≥ 99
CNC(=O)/C(=N\OCF)c1ccccc1Oc1ncnc(Oc2ccccc2C)c1F [Example 11] | ≥ 99
CNC(=O)/C(=N\OCF)c1ccccc1Oc1nc(-c2cccc(OC(F)(F)F)c2)ns1 [Example 23] | ≥ 99
CNC(=O)C(NOCF)c1ccccc1Oc1ncnc(Oc2cccc(Cl)c2Cl)c1F (stereo not shown) [drawing 71] | 96
CNC(=O)C(NOCF)c1ccccc1Oc1ncnc(Oc2ccccc2)c1F (stereo not shown) [drawing 73] | 96
CNC(=O)/C(=N\OCF)c1ccccc1Oc1ncnc(Oc2ccccc2Cl)c1F [drawing 81] | 100
CNC(=O)/C(=N\OCF)c1ccccc1Oc1nc(-c2cccc(OC(F)F)c2)ns1 [drawing 82] | 100

Same assay, conditions: Venturia inaequalis, 288 h, protective, application rate 19 g/ha, evaluation 12 days after inoculation, read-out: Efficacy in %

SMILES | pest or weed control at 19 g/ha [%]
CNC(=O)/C(=N\OCF)c1ccccc1Oc1nc(-c2ccc(C(F)(F)F)cc2)ns1 [drawing 78] | 100

Same assay, conditions: protective, application rate 10 g/ha, evaluation 12 days after inoculation

SMILES | Efficacy in % [%]
COC(=O)C(=NOCF)c1ccccc1Oc1ncnc(Oc2ccccc2Cl)c1F [drawing 68] | 100
CNC(=O)C(=NOCF)c1ccccc1Oc1ncnc(Oc2ccccc2Cl)c1F [drawing 69] | 99
CNC(=O)C(=NOCF)c1ccccc1Oc1nc(-c2ccccc2)ns1 [drawing 70] | 100
CNC(=O)/C(=N\OCF)c1ccccc1Oc1ncnc(Oc2ccccc2OC(F)F)c1F [drawing 72] | 95
CNC(=O)/C(=N\OCF)c1ccccc1Oc1ncnc(Oc2cccc(C)c2C)c1F [drawing 74] | 100
CNC(=O)/C(=N\OCF)c1ccccc1Oc1ncnc(Oc2ccccc2C)c1F [drawing 75] | 100
CNC(=O)/C(=N\OCF)c1ccccc1Oc1ncnc(Oc2cccc(Cl)c2C)c1F [drawing 76] | 98
CNC(=O)/C(=N\OCF)c1ccccc1Oc1nc(-c2cccc(OC(F)(F)F)c2)ns1 [drawing 77] | 100
CNC(=O)/C(=N\OCF)c1ccccc1Oc1nc(-c2cccc(C(F)(F)F)c2)ns1 [drawing 79] | 100
CNC(=O)/C(=N\OCF)c1ccccc1Oc1nc(-c2ccc(OC(F)(F)F)cc2)ns1 [drawing 80] | 100
CNC(=O)/C(=N\OCF)c1ccccc1Oc1nc(-c2ccc(OC(F)F)cc2)ns1 [drawing 83] | 99

Test system: not listed separately
Test: logP determination by HPLC (EEC Directive 79/831 Annex V. A8)
Assay type: physicochemical
Details: HPLC gradient method, acetonitrile/0.1% aqueous phosphoric acid
Protocol: The logP values are determined in accordance with EEC Directive 79/831 Annex V. A8 by HPLC (gradient method, acetonitrile/0.1% aqueous phosphoric acid).

chromatographic logP | SMILES
2.9 | CNC(=O)C(=NOCF)c1ccccc1Oc1nc(-c2ccccc2)ns1 [Example 3, 2-fluoromethoxyimino-N-methyl-2-[2-(3-phenyl-[1,2,4]thiadiazol-5-yloxy)-phenyl]-acetamide]
3.3 | CNC(=O)/C(=N\OCF)c1ccccc1Oc1ncnc(Oc2cccc(C)c2C)c1F [Example 9]
3 | CNC(=O)/C(=N\OCF)c1ccccc1Oc1ncnc(Oc2ccccc2C)c1F [Example 11]
3.8 | CNC(=O)/C(=N\OCF)c1ccccc1Oc1nc(-c2cccc(OC(F)(F)F)c2)ns1 [Example 23]
3.32 | CNC(=O)/C(=N\OCF)c1ccccc1Oc1ncnc(Oc2cccc(C)c2Cl)c1F [Example 27]
1.6 | COC(=O)C(=NOCF)c1ccccc1O [Example (II-1), methyl 2-fluoromethoxyimino-2-(2-hydroxyphenyl)-acetate]
1.1 | CNC(=O)C(=NOCF)c1ccccc1O [Example (II-2), 2-fluoromethoxyimino-2-(2-hydroxyphenyl)-N-methylacetamide]
2.8 | COC(=O)C(=NOCF)c1ccccc1OC1CCCCO1 (stereo not shown) [Example (VI-1), methyl 2-fluoromethoxyimino-2-[2-(tetrahydropyran-2-yloxy)-phenyl]-acetate]

Test system: Puccinia recondita
Test: Puccinia test (wheat)/protective
Assay type: in vivo
Details: Puccinia recondita, 240 h, protective, application rate 250 g/ha, evaluation 10 days after inoculation, read-out: Efficacy in %
Protocol: Puccinia Test (Wheat)/Protective
Solvent: 25 parts by weight of N,N-dimethylacetamide
Emulsifier: 0.6 part by weight of alkylaryl polyglycol ether
as §3
To test for protective activity, young plants are sprayed with the preparation of active compound at the stated application rate. After the spray coating has dried on, the plants are sprayed with a conidia suspension of Puccinia recondita. The plants remain in an incubation cabin at 20° C. and 100% relative atmospheric humidity for 48 hours.
The plants are then placed in a greenhouse at a temperature of approximately 20° C. and a relative atmospheric humidity of 80% to promote the development of rust pustules.
Evaluation is carried out 10 days after the inoculation. 0% means an efficacy which corresponds to that of the control, whereas an efficacy of 100% means that no infection is observed.

SMILES | pest or weed control at 250 g/ha [%]
CNC(=O)/C(=N\OCF)c1ccccc1Oc1ncnc(Oc2cccc(C)c2C)c1F [Example 9] | ≥ 80
CNC(=O)/C(=N\OCF)c1ccccc1Oc1ncnc(Oc2ccccc2C)c1F [Example 11] | ≥ 80
CNC(=O)C(NOCF)c1ccccc1Oc1ncnc(Oc2cccc(Cl)c2Cl)c1F (stereo not shown) [drawing 86] | 100
CNC(=O)C(NOCF)c1ccccc1Oc1ncnc(Oc2ccccc2)c1F (stereo not shown) [drawing 88] | 100
CNC(=O)C(NOCF)c1ccccc1Oc1ncnc(Oc2ccccc2[N+](=O)[O-])c1F (stereo not shown) [drawing 89] | 100
CNC(=O)/C(=N\OCF)c1ccccc1Oc1ncnc(Oc2ccccc2Cl)c1F [drawing 96] | 100

Same assay, conditions: protective, application rate 250 g/ha, evaluation 10 days after inoculation

SMILES | Efficacy in % [%]
COC(=O)C(=NOCF)c1ccccc1Oc1ncnc(Oc2ccccc2Cl)c1F [drawing 84] | 80
CNC(=O)C(=NOCF)c1ccccc1Oc1ncnc(Oc2ccccc2Cl)c1F [drawing 85] | 100
CNC(=O)/C(=N\OCF)c1ccccc1Oc1ncnc(Oc2ccccc2OC(F)F)c1F [drawing 87] | 100
CNC(=O)/C(=N\OCF)c1ccccc1Oc1ncnc(Oc2cccc(C)c2C)c1F [drawing 90] | 100
CNC(=O)/C(=N\OCF)c1ccccc1Oc1ncnc(Oc2ccccc2C#N)c1F [drawing 91] | 100
CNC(=O)/C(=N\OCF)c1ccccc1Oc1ncnc(Oc2ccccc2C)c1F [drawing 92] | 100
CNC(=O)/C(=N\OCF)c1ccccc1Oc1nc(-c2ccc(C(F)(F)F)cc2)ns1 [drawing 93] | 100
CNC(=O)/C(=N\OCF)c1ccccc1Oc1nc(-c2cccc(C(F)(F)F)c2)ns1 [drawing 94] | 100
CNC(=O)/C(=N\OCF)c1ccccc1Oc1nc(-c2ccc(OC(F)(F)F)cc2)ns1 [drawing 95] | 100
CNC(=O)/C(=N\OCF)c1ccccc1Oc1nc(-c2ccc(OC(F)F)cc2)ns1 [drawing 97] | 100

Test system: Plasmopara viticola
Test: Plasmopara test (grapevine)/protective
Assay type: in vivo
Details: Plasmopara viticola, 144 h, protective, application rate 100 g/ha, evaluation 6 days after inoculation, read-out: Efficacy in %
Protocol: Plasmopara Test (Grapevine)/Protective
as §1, §2, §3
To test for protective activity, young plants are sprayed with the preparation of active compound at the stated application rate. After the spray coating has dried on, the plants are inoculated with an aqueous spore suspension of Plasmopara viticola and then remain in an incubation cabin at approximately 20° C. and 100% relative atmospheric humidity for 1 day. The plants are subsequently placed in a greenhouse at approximately 21° C. and approximately 90% relative atmospheric humidity for 5 days. The plants are then moistened and placed in an incubation cabin for 1 day.
Evaluation is carried out 6 days after the inoculation. 0% means an efficacy which corresponds to that of the control, whereas an efficacy of 100% means that no infection is observed.

SMILES | pest or weed control at 100 g/ha [%]
CNC(=O)C(=NOCF)c1ccccc1Oc1nc(-c2ccccc2)ns1 [Example 3, 2-fluoromethoxyimino-N-methyl-2-[2-(3-phenyl-[1,2,4]thiadiazol-5-yloxy)-phenyl]-acetamide] | ≥ 98
CNC(=O)/C(=N\OCF)c1ccccc1Oc1ncnc(Oc2cccc(C)c2C)c1F [Example 9] | ≥ 98
CNC(=O)/C(=N\OCF)c1ccccc1Oc1ncnc(Oc2ccccc2C)c1F [Example 11] | ≥ 98
CNC(=O)/C(=N\OCF)c1ccccc1Oc1nc(-c2cccc(OC(F)(F)F)c2)ns1 [Example 23] | ≥ 98
CNC(=O)/C(=N\OCF)c1ccccc1Oc1ncnc(Oc2cccc(C)c2Cl)c1F [Example 27] | ≥ 98
CNC(=O)C(NOCF)c1ccccc1Oc1ncnc(Oc2ccccc2)c1F (stereo not shown) [drawing 57] | 100
CNC(=O)C(NOCF)c1ccccc1Oc1ncnc(Oc2ccccc2[N+](=O)[O-])c1F (stereo not shown) [drawing 58] | 96
CNC(=O)/C(=N\OCF)c1ccccc1Oc1ncnc(Oc2ccccc2Cl)c1F [drawing 64] | 100
CNC(=O)/C(=N\OCF)c1ccccc1Oc1nc(-c2cccc(OC(F)F)c2)ns1 [drawing 65] | 99

Same assay, conditions: protective, application rate 100 g/ha, evaluation 6 days after inoculation

SMILES | Efficacy in % [%]
COC(=O)C(=NOCF)c1ccccc1Oc1ncnc(Oc2ccccc2Cl)c1F [drawing 50] | 98
CNC(=O)C(=NOCF)c1ccccc1Oc1ncnc(Oc2ccccc2Cl)c1F [drawing 51] | 100
CNC(=O)/C(=N\OCF)c1ccccc1Oc1ncnc(Oc2ccccc2C)c1F [drawing 52] | 100
CNC(=O)/C(=N\OCF)c1ccccc1Oc1ncnc(Oc2cccc(Cl)c2C)c1F [drawing 53] | 100
CNC(=O)/C(=N\OCF)c1ccccc1Oc1nc(-c2cccc(OC(F)(F)F)c2)ns1 [drawing 54] | 100
CNC(=O)C(=NOCF)c1ccccc1Oc1nc(-c2ccccc2)ns1 [drawing 55] | 100
CNC(=O)/C(=N\OCF)c1ccccc1Oc1ncnc(Oc2ccccc2OC(F)F)c1F [drawing 56] | 96
CNC(=O)/C(=N\OCF)c1ccccc1Oc1ncnc(Oc2cccc(C)c2C)c1F [drawing 59] | 100
CNC(=O)/C(=N\OCF)c1ccccc1Oc1ncnc(Oc2ccccc2C#N)c1F [drawing 60] | 96
CNC(=O)/C(=N\OCF)c1ccccc1Oc1nc(-c2ccc(C(F)(F)F)cc2)ns1 [drawing 61] | 100
CNC(=O)/C(=N\OCF)c1ccccc1Oc1nc(-c2cccc(C(F)(F)F)c2)ns1 [drawing 62] | 100
CNC(=O)/C(=N\OCF)c1ccccc1Oc1nc(-c2ccc(OC(F)(F)F)cc2)ns1 [drawing 63] | 100
CNC(=O)/C(=N\OCF)c1ccccc1Oc1nc(-c2ccc(OC(F)F)cc2)ns1 [drawing 66] | 100
CNC(=O)/C(=N\OCF)c1ccccc1Oc1ncnc(Oc2cccc(C)c2Cl)c1F [drawing 67] | 100
